Data set [1] concerns the target p300 (Homo sapiens, UniProt Q09472). The data set can be described thus: Histone Acetyltransferase (HAT) in vitro acetylation assay, western blot of H3K27ac / H3K18ac. The class given is biochemical. The following applies: for H3-Lys 18 EC50 / H3-Lys 27 EC50 / EC50: EC50 for activators; for H3-Lys 18 IC50 / H3-Lys 27 IC50: IC50 for inhibitors. The procedure: The aim of the in vitro acetylation assay is to measure the enzymatic activity of the various compounds towards p300.
First, the drug is prepared:
Second, dilute p300 in AM1 buffer to a concentration of 40 ng/μL (final concentration in the reaction 20 ng/μL). This is accomplished by diluting 1 μL of p300 (at 0.4 μg/μL) into […] of AM1 buffer.
Third, prepare the Master Mix. Prepare the Master Mix in low protein binding tubes (ThermoFisher Cat. No. 90410), 20 μL system.
Incubate reactions at 30° C. for 30 minutes.
Incubate reactions at 30° C. for 1 hour.
Fourth, perform the western blot assay. • Add 6.7 μL of Laemmli Sample Buffer 4× (Bio-Rad Laboratories Cat. No. 161-0737) for each reaction and boil samples at 95° C. for 5 min. • Charge 10 μL for each sample in 2 Tris Glycine 4-15% gels (Bio-Rad Laboratories Cat. No. 456-1086). Running Buffer: Tris-Glycine 1× (pour in the cell up to the writing “2 gels”). • Run at 90 V for 1 hour (until the gel front reaches the green line of cell). • Semi-dry transfer with Trans-Blot® Turbo™ Blotting System from Bio-Rad Laboratories (Trans-Blot® Turbo™ RTA midi PVDF transfer kit Cat. No1704275). • Activate PVDF membrane in methanol for 5 minutes and then wet in Trans-Blot® Turbo™ transfer buffer. • Wet stacks in transfer buffer. • Transfer at 23 V 1.3 A for 7 minutes. • Blocking buffer: 5% Non-Fat milk in TBST (tween 0.1%) 1 hour at room temperature. • Cut the membranes to get Ac-His 3 at 17 kDa and p300 at 300 kDa. • Incubate with primary antibodies overnight at 4° C. • The day after, make 3 washes in TBST (Tween 0.1%) of 10 minutes. • Incubate with secondary antibody at room temperature for 1 hour. • Make 3 washes in TBST (Tween 0.1%) of 5 minutes. • Incubate membranes with ECL (SuperSignal West Dura Extended Duration Substrate from ThermoFisher) for 5 minutes at room temperature. • Acquire the image with ChemiDoc Odyssey Fc 2 minutes.
To detect total H3 (loading control), strip the membranes with Restore™ Western Blot Stripping Buffer according to the manufacturer protocol.
Various compounds were tested for enzymatic activity with respect to Lys 18 and Lys 27. EC50 is indicated for Activators and IC50 for inhibitors respectively.
FIGS. 1A to 25B are graphs showing the lysine residue acetylation as a function of concentration for the compounds set forth in Table 3. The shaded area corresponds to the average values of lysine residue acetylation (continuous line) and their standard error range measured in the absence of compound and DMSO. The number of replicates is represented by “n”.
A general note: In western blotting, separated proteins are transferred to a membrane and probed.

Data set [2] in a line: Stability in human liver microsomes. Format: in vitro ADME. Conditions: for microsomal CLint at 1 μM / half-life at 1 μM: both sexes, human, liver microsomes, pH 7.4, human liver microsomes. As for the experimental part: Some compounds were tested for stability in human liver microsomes as shown below in Table 2.
Mixed-gender human liver microsomes (Lot #1010420) were purchased from XenoTech. The reaction mixture, minus NADPH, was prepared as described below. The test article was added into the reaction mixture at a final concentration of 1 μM. The control compound, testosterone, was run simultaneously with the test article in a separate reaction. An aliquot of the reaction mixture (without cofactor) was equilibrated in a shaking water bath at 37° C. for 3 minutes. The reaction was initiated by the addition of the cofactor, and the mixture was incubated in a shaking water bath at 37° C. Aliquots (100 μL) were withdrawn at 0, 10, 20, 30, and 60 minutes. Test article and testosterone samples were immediately combined with 400 μL of ice-cold 50/50 acetonitrile (ACN)/H2O containing 0.1% formic acid and internal standard to terminate the reaction. The samples were then mixed and centrifuged to precipitate proteins. All samples were assayed by LC-MS/MS using electrospray ionization. Analytical conditions are outlined in Appendix 1. The peak area response ratio (PARR) to internal standard was compared to the PARR at time 0 to determine the percent remaining at each time point. Half-lives and clearance were calculated using GraphPad software, fitting to a single-phase exponential decay equation.
Liver Microsomes 0.5 mg/mL NADPH (cofactor) 1 mM
Potassium Phosphate, pH 7.4 100 mM
Intrinsic clearance (CLint) was calculated based on CLint=k/P, where k is the elimination constant and P is the protein concentration in the incubation.

Setting [3] is: compound in DMSO, read-out: H3-Lys 18 EC50.
Where [4] appears, read: compound in DMSO, read-out: H3-Lys 27 EC50.

Structures can show the parent of a compound that is named as a salt. Where two headings read alike, the source gives them in different places.

Chain of p300 (Q09472 whole entry, species assumed): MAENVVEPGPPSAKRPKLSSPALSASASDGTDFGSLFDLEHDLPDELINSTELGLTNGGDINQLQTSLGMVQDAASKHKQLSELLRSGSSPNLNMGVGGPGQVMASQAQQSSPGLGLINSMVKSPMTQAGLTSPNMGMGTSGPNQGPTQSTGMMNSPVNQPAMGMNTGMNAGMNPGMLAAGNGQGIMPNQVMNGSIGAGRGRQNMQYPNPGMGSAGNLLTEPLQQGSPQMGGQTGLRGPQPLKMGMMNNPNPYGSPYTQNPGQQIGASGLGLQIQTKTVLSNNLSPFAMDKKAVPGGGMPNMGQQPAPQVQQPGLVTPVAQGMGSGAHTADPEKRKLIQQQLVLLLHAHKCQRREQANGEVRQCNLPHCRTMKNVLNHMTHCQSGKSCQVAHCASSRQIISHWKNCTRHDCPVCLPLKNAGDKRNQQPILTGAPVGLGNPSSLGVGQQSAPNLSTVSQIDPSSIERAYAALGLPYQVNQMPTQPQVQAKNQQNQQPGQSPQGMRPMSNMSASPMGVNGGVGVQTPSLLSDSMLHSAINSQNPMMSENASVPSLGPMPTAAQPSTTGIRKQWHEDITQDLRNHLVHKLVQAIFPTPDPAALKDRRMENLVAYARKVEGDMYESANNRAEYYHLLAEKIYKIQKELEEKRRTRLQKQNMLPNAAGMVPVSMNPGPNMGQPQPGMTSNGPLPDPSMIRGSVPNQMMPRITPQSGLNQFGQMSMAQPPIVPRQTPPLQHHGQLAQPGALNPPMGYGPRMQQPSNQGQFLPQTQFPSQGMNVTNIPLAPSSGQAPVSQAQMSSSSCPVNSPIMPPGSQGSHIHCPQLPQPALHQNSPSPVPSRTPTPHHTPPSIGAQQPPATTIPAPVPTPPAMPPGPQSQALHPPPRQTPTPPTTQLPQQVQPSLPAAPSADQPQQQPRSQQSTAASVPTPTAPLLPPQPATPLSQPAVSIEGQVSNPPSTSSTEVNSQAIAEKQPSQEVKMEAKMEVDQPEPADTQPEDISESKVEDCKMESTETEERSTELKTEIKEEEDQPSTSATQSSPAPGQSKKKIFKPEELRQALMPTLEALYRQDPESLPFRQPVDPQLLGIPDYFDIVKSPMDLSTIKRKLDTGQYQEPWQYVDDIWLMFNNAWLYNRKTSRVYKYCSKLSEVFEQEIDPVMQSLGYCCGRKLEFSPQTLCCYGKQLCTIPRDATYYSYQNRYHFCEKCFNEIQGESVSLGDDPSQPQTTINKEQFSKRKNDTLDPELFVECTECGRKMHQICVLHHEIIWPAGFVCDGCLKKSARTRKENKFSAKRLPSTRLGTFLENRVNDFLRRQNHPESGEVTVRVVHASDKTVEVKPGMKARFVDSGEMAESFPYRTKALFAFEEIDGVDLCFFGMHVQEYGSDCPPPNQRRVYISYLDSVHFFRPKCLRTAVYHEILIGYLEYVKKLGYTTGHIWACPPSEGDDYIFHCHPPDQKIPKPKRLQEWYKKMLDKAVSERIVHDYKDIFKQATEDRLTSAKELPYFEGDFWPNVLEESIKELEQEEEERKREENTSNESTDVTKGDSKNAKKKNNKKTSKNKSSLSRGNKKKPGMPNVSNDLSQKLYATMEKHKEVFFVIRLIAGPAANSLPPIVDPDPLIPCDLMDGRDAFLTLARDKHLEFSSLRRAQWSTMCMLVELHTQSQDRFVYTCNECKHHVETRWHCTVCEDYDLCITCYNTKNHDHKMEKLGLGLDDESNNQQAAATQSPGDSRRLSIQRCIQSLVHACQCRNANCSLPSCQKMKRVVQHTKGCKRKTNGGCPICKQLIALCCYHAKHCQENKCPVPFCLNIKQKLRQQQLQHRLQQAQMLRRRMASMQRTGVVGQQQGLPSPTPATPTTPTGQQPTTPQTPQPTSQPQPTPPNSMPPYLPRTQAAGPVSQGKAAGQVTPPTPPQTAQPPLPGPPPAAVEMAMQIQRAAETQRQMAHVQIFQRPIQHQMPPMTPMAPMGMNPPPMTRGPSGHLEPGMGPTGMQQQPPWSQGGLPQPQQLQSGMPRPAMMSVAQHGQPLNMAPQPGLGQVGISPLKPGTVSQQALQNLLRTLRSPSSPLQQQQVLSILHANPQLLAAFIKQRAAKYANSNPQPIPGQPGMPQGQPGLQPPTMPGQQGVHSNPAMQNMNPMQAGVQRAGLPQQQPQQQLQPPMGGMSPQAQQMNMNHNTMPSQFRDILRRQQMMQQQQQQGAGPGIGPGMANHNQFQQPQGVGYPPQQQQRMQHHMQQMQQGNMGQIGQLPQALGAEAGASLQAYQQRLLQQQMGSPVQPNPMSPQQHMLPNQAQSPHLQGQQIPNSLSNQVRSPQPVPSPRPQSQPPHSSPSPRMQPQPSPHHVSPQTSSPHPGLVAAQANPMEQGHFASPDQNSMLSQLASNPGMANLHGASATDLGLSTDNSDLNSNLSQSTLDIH

For the molecule `CCOc1cccc(OCCN(C)C)c1-c1nc2cc(Cl)c(C(F)(F)F)cc2[nH]1` [RA013012], in data set [1] (compound in DMSO), the “H3-Lys 18 EC50” value is “NO ACTIVITY”, the “H3-Lys 27 EC50” value is reported as “NO ACTIVITY”, the “H3-Lys 18 IC50” value is recorded as “NO ACTIVITY” and the “H3-Lys 27 IC50” value is listed as “NO ACTIVITY”.

On to `CC(C)Oc1cccc(OCCN(C)C)c1C(=O)Nc1ccc(Cl)c(C(F)(F)F)c1` [RA010143 HCl], for which, in data set [1] (compound in DMSO), the “H3-Lys 27 EC50” value is given as “NO ACTIVITY” and the “H3-Lys 27 IC50” value was “NO ACTIVITY”.

Regarding `CCOc1cccc(OCC)c1C(=O)Nc1ccc(Cl)c(C(F)(F)F)c1` [RA010171], the EC50 in data set [1] (setting [3]) turned out to be 141 nM.

Consider `CCOc1cccc(OCCN(C)C)c1C(=O)Nc1cccc(C(F)(F)F)c1` [RA013928], for which, in data set [1] (compound in DMSO), the “H3-Lys 18 EC50” value is reported as “NO ACTIVITY” and the “H3-Lys 18 IC50” value is recorded as “NO ACTIVITY”.

Regarding `CN(C)CCOc1cccc(O)c1C(=O)Nc1ccc(Cl)c(C(F)(F)F)c1` [RA013905], in data set [1] (compound in DMSO), the “H3-Lys 18 EC50” value is “NO ACTIVITY”, the “H3-Lys 27 EC50” value is “NO ACTIVITY”, the “H3-Lys 18 IC50” value is “NO ACTIVITY” and the “H3-Lys 27 IC50” value is given as “NO ACTIVITY”.

Regarding `CCOc1ccccc1C(=O)N(CCN(C)C)c1ccc(Cl)c(C(F)(F)F)c1` [RA013886], in data set [1] (compound in DMSO), the “H3-Lys 18 EC50” value is recorded as “NO ACTIVITY”, the “H3-Lys 27 EC50” value was “NO ACTIVITY”, the “H3-Lys 18 IC50” value is “NO ACTIVITY” and the “H3-Lys 27 IC50” value is given as “NO ACTIVITY”.

In the case of `CCOc1cccc(OCCN(C)C)c1C(=O)Nc1ccc(Cl)cn1` [RA013917], the “H3-Lys 18 EC50” value in data set [1] (compound in DMSO) is reported as “NO ACTIVITY”. Besides, the EC50 in data set [1] (setting [4]) was found to be 15.9 nM.

In the case of `CCCOc1cccc(OCCN(C)C)c1C(=O)Nc1ccc(Cl)c(C(F)(F)F)c1` [RA013938], in data set [1] (compound in DMSO), the “H3-Lys 18 EC50” value was “NO ACTIVITY”, the “H3-Lys 27 EC50” value was “NO ACTIVITY”, the “H3-Lys 18 IC50” value is reported as “NO ACTIVITY” and the “H3-Lys 27 IC50” value is listed as “NO ACTIVITY”.

`CCOc1cccc(OCCOC)c1C(=O)Nc1ccc(Cl)c(C(F)(F)F)c1` [RA010155]: in data set [1] (compound in DMSO), the “H3-Lys 27 EC50” value is reported as “NO ACTIVITY” and the “H3-Lys 27 IC50” value was “NO ACTIVITY”. In addition, in data set [1] (setting [3]), the 50% effective concentration (EC50) was found to be 129 nM.

`CCOc1cccc(OCCN(C)C)c1NC(=O)c1ccc(Cl)c(C(F)(F)F)c1` [RA013919]: in data set [1] (compound in DMSO), the “H3-Lys 27 EC50” value was “NO ACTIVITY” and the “H3-Lys 27 IC50” value is reported as “NO ACTIVITY”.

Turning to `COc1cccc(OCCN(C)C)c1C(=O)Nc1ccc(Cl)c(C(F)(F)F)c1` [RA010900 HCl], in data set [1] (compound in DMSO), the “H3-Lys 18 EC50” value was “NO ACTIVITY”, the “H3-Lys 27 EC50” value is on record as “NO ACTIVITY”, the “H3-Lys 18 IC50” value is “NO ACTIVITY” and the “H3-Lys 27 IC50” value is listed as “NO ACTIVITY”. The EC50 in data set [1] (compound in H2O, read-out: H3-Lys 18 EC50) stood at 117 nM. In addition, the EC50 in data set [1] (compound in H2O, read-out: H3-Lys 27 EC50) was determined as 44 nM.

With `CCCOc1cccc(O)c1C(=O)Nc1ccc(Cl)c(C(F)(F)F)c1` [RA013931], in data set [1] (compound in DMSO), the “H3-Lys 18 EC50” value is listed as “NO ACTIVITY”, the “H3-Lys 27 EC50” value was “NO ACTIVITY”, the “H3-Lys 18 IC50” value is on record as “NO ACTIVITY” and the “H3-Lys 27 IC50” value is recorded as “NO ACTIVITY”.

For the molecule `CCOc1cccc(O)c1C(=O)Nc1cccc(C(F)(F)F)c1` [RA010160], the EC50 stood at 146 nM in data set [1] (setting [3]) and 533 nM in data set [1] (setting [4]).

In the case of `CN(C)CCOc1cccc(F)c1C(=O)Nc1ccc(Cl)c(C(F)(F)F)c1` [RA010162], in data set [1] (compound in DMSO), the “H3-Lys 18 EC50” value is “NO ACTIVITY”, the “H3-Lys 27 EC50” value is “NO ACTIVITY”, the “H3-Lys 18 IC50” value is “NO ACTIVITY” and the “H3-Lys 27 IC50” value is reported as “NO ACTIVITY”.

Consider `CCOc1cccc(OCCNC)c1C(=O)Nc1ccc(Cl)c(C(F)(F)F)c1` [RA013894], for which, in data set [1] (compound in DMSO), the “H3-Lys 18 EC50” value is reported as “NO ACTIVITY”, the “H3-Lys 27 EC50” value is recorded as “NO ACTIVITY”, the “H3-Lys 18 IC50” value is “NO ACTIVITY” and the “H3-Lys 27 IC50” value was “NO ACTIVITY”.

Take `CCOc1cccc(N(C)CCN(C)C)c1C(=O)Nc1ccc(Cl)c(C(F)(F)F)c1` [RA010163]: in data set [1] (compound in DMSO), the “H3-Lys 18 EC50” value was “NO ACTIVITY”, the “H3-Lys 27 EC50” value is “NO ACTIVITY”, the “H3-Lys 18 IC50” value was “NO ACTIVITY” and the “H3-Lys 27 IC50” value was “NO ACTIVITY”.

As to `CCOc1cccc(OCCN(C)C)c1C(=O)Nc1cccc(C(F)(F)F)c1` [RA010168], in data set [1] (compound in DMSO), the “H3-Lys 27 EC50” value was “NO ACTIVITY” and the “H3-Lys 27 IC50” value was “NO ACTIVITY”.

For `CCOc1ccnc(OCCN(C)C)c1C(=O)Nc1ccc(Cl)c(C(F)(F)F)c1` [RA013005], the microsomal CLint at 1 μM in data set [2] (calculated value printed in parentheses behind the bound, read-out: CLint, value in parentheses) was 188 µL/min/mg; in data set [2] (read-out: CLint), greater than 139 µL/min/mg. Also, the half-life at 1 μM in data set [2] (fitted value printed in parentheses behind the bound, read-out: Half-life, value in parentheses) was 7.36 min; in data set [2] (read-out: Half-life) it was less than 10 min. The “% Remaining of Initial (n = 1) 0 min” value in data set [2] (human liver microsomes, test article 1 μM, 0 min) is listed as 100%. For the same molecule, the “% Remaining of Initial (n = 1) 10 min” value in data set [2] (human liver microsomes, test article 1 μM, 10 min) was 40.5%. In addition, the “% Remaining of Initial (n = 1) 20 min” value in data set [2] (human liver microsomes, test article 1 μM, 20 min) was determined as 14.1%. The “% Remaining of Initial (n = 1) 30 min” value in data set [2] (human liver microsomes, test article 1 μM, 30 min) worked out at 4.97%. The “% Remaining of Initial (n = 1) 60 min” value in data set [2] (human liver microsomes, test article 1 μM, 60 min) is on record as less than 1.00%. Besides, the EC50 was 76.5 nM in data set [1] (setting [3]) and 594 nM in data set [1] (setting [4]).

On to `CCOc1cccc(OCCO)c1C(=O)Nc1ccc(Cl)c(C(F)(F)F)c1` [RA010146], for which, in data set [1] (compound in DMSO), the “H3-Lys 18 EC50” value is listed as “NO ACTIVITY”, the “H3-Lys 27 EC50” value is “NO ACTIVITY”, the “H3-Lys 18 IC50” value is “NO ACTIVITY” and the “H3-Lys 27 IC50” value is listed as “NO ACTIVITY”.

What is called EC50 is the concentration giving half of the maximal effect. As a reminder, the half-life is how long it takes for the measured level to halve.

(Values after patent publication US20220127232A1, “HISTONE ACETYLTRANSFERASE MODULATORS AND COMPOSITIONS AND USES THEREOF” (The Trustees of Columbia University in the City of New York, priority 2019, published 2022).)
